Data set [1] concerns rats as models of pain after incision. As to the kind of experiment: Mechanical allodynia test (Von Frey method) in rats as models of pain after incision. Type of data set: in vivo, SD rat.
For data set [2] the following is noted: parent drug, cited from earlier work.
The subject of data set [3] is rats as models of pain after incision. As to the kind of experiment: Thermal hyperalgesia test (Hargreaves method) in rats as models of pain after incision. It is filed as in vivo, SD rat.
[4] abbreviates: HD group: A-17 0.6 mg/animal, parent 0.36 mg/animal.
[5] abbreviates: LD group: A-17 0.15 mg/animal, parent 0.09 mg/animal.

Values after ≈ are worked out from the molar mass of the structure shown. Where two headings read alike, the source gives them in different places.

For the compound `COc1cc(CNC(=O)CCCC/C=C/C(C)C)ccc1O` [trans-8-methyl-N-vanillyl-6-nonenamide], the “Time after surgery at which paw withdrawal threshold (PWT) was increased vs blank preparation group (P<0.05)” value in data set [1] (setting [4]) is reported as 4 h; in data set [1] (setting [5]), “no significant effect”. For the same compound, the Solubility in water in data set [2] (at 25° C.) is 8.41 µg/mL (≈ 27.5 µM). Also, in data set [2], the “Log P” value is recorded as 3.8. Also, the “Effect on overall thermal hyperalgesia (AUC of time-TWL curve) within 7 days vs blank preparation” value in data set [3] (HD group: A-17 0.6 mg/animal (P<0.001), parent 0.36 mg/animal (P<0.01)) is “effective in relieving the overall thermal hyperalgesia”; in data set [3] (setting [5]), “no significant effect”. Further, the “Duration of analgesic effect on thermal hyperalgesia” value in data set [3] (setting [4]) is 3 days. Also, the “Time after surgery at which thermal withdrawal latency (TWL) was increased vs blank preparation group (P<0.05)” value in data set [3] (LD group: A-17 0.15 mg/animal, parent 0.09 mg/animal, injection at incision site) was 1 h.

In the case of “(E)-2-methoxy-4-(8-methylnonanamide)phenyl 2-([[1,4′-bipiperidin]-1′-yl) propanoate hydrochloride [Compound A-16]”, the “Release half-life t1/2” value runs as follows: (pH 4.5) “About 73 h”; (pH 7.4) “About 157 h”.

What is called Log P is a log measure of how a compound divides between an organic and an aqueous phase.

Values taken from patent US20220371988A1, “TRPV1 AGONIST AND PREPARATION METHOD THEREFOR AND USE THEREOF” (NANJING DELOVA BIOTECH CO. LTD., priority 2019, published 2022).
